Test results published in patent publication US20160045463A1, “USE OF METALLOPROTEASE INHIBITORS IN THE TREATMENT OF POLYCYSTIC LIVER DISEASES” (UNIVERSIDAD DE SALAMANCA, priority 2012, published 2016).

Experiments:
[1] = system: normal human cholangiocytes; assay: Metalloproteolytic activity of culture supernatants, ES001 fluorogenic peptide cleavage; format: cell-based; conditions: normal cholangiocytes; 13-cis-retinoic acid 10 μM/ml or Marimastat 200 μM/ml; p<0.01; FIG. 21
Procedure: (§1) Metalloproteolytic or metalloprotease activity was measured in supernatants of cultures of normal human cholangiocytes and polycystic human cholangiocytes by an assay based on the cleavage of the ES001 fluorogenic synthetic peptide (R&D Systems Minneapolis, Minn., USA) that emits fluorescence proportional to metalloproteolytic activity. The substrate Mca-Pro-Leu-Gly-Leu-Dpa-Ala-Arg-NH2 [Mca: (7-Methoxycoumarin-4-yl)acetyl, Dpa: N-3-(2,4-Dinitrophenyl)-L-2,3-diaminopropionyl] (Knight C G, et al. FEBS Letters 1992; 296:263) is lysed between glycine and leucine by the action of the MMPs, especially MMP-1 (collagenase 1), MMP-2 (gelatinase A), MMP-7 (matrilysin), MMP-8 (collagenase 2), MMP-9 (gelatinase B), MMP-12 (macrophage elastase), MMP-13 (collagenase 3), MMP-14 (MT1-MMP), MMP-15 (MT2-MMP) and MMP-16 (MT3-MMP).
(§2) The basal metalloproteolytic activity of normal human cholangiocyte and polycystic human cholangiocytes cultures was determined by trypsinising the contents of 250 ml flasks and counting the number of cells in an inverted optical microscope using a Neubauer camera and a ½ dilution of the cell solution with trypan blue (Sigma). Next, 300,000 cells were seeded in each well of a 6-well plate and incubated with enriched DMEM/F-12 medium for 24 hours. After this time, the cells were washed with PBS and the culture medium changed for 2 ml of quiescent medium (DMEM/F-12, 1% FBS and 1% P/S) and incubated for 6 hours at 37° C./5% CO2. The supernatant was collected from each well and centrifuged at 4° C. for 10 minutes at 1,500 rpm to remove the dead cells present in the supernatant. The supernatant was concentrated 50 times using a 15 kDa (Millipore) Amicon Ultra concentrator. Next the concentrated supernatant was incubated for 2 hours at 37° C. with the ES001 fluorogenic peptide at a final concentration of 10 μM. Also, GM6001 (a global MMP inhibitor) and aprotinin (a global inhibitor of serine proteases) (both from Sigma-Aldrich) were used as controls of the specificity of the analysis of MMP activity in the assay. Recombinant MMP-10 (kindly provided by Dr. José Antonio Rodriguez Garcia, Laboratorio de Ateroesclerosis e Inflamación del CIMA, Universidad de Navarra) was used as a positive control and DMEM/F-12 medium without serum was used as the negative control. The fluorescence determination was kinetically measured in a Spectra MAX GeminiXS (Molecular Devices Sunnyvale, Calif., USA) spectrophotometer at excitation-emission wavelengths of 320-405 nm. The fluorescence intensity emitted by the culture medium was extracted from the metalloproteolytic activity values. The metalloproteolytic activity was calculated from the tangent to the curve of the fluorescence values using at least six different points over time for each type of cell and condition.
(§3) To analyse the effect of various stimuli on the metalloproteolytic activity of normal and polycystic human cholangiocytes cultures, a protocol similar to that described before in Example 2 was followed, but in this case the incubation of the cells was with quiescent medium (i.e. DMEM/F12, […]) in the presence of the corresponding stimulus (Table 3). Next, the same procedure as described for the analysis of basal metalloproteolytic activity was followed as described in Example 2.
(§4) Taking into account that: i) basal activity of polycystic human cholangiocytes in culture is greater than that of normal human cholangiocytes and ii) that IL-6 and IL-8 increased the metalloproteolytic activity of normal and polycystic human cholangiocytes, the role of these two cytokines on metalloproteolytic hyperactivity of polycystic human cholangiocytes using antibodies against the receptors of IL-6 (IL6R) and/or IL-8 (CXCR1) was investigated. […]

[2] = system: polycystic human cholangiocytes; assay: as above; format: cell-based; conditions: polycystic cholangiocytes; 13-cis-retinoic acid 10 μM/ml or Marimastat 200 μM/ml; p<0.01; FIG. 21
Procedure: as §1, §2, §3, §4

normal rats = assay: Normal rats treated with Marimastat orally for 1 week; format: in vivo, rat; conditions: oral, same dose
Procedure: The various biochemical and histological markers listed above were also analysed. […] There were also no changes in the mean body weight of the animals.

Compound: CNC(=O)[C@@H](NC(=O)[C@H](CC(C)C)[C@H](O)C(=O)NO)C(C)(C)C [Marimastat, N-[2,2-dimethyl-1-(methylcarbamoyl)propyl]-2-[hydroxy-(hydroxycarbamoyl)methyl]-4-methyl-pentanamide]
- basal metalloproteolytic activity in presence of inhibitor [1]: inhibited
- basal metalloproteolytic activity in presence of inhibitor [2]: inhibited
- histology of the liver or the kidney (normal rats): did not affect
- mean body weight of the animals (normal rats): no changes
- serum levels of biochemical markers (normal rats): did not affect
